Test results as given in ChEMBL document CHEMBL1143699, “Chemical and biological effects of substitution of the 2-position of ring-expanded ('fat') nucleosides containing the imidazo[4,5-e][1,3]diazepine-4,8-dione ring system: the role of electronic and steric factors on glycosidic bond stability and anti-HCV activity” (Bioorg Med Chem, 2007).

Columns and labels:
Hepatitis C virus = test: Antiviral activity against Hepatitis C virus infected Huh7 cells assessed as RNA replicon; assay type: functional, Hepacivirus hominis, Huh-7
[1] = Cytotoxicity against Huh7 cells relative to control; assay type: cell-based; details: human, huh-7

Compound | Inhibition (Hepatitis C virus) [%] | Activity [1] [%]
Nc1nc(=O)c2nc(-c3ccc(F)cc3)n([C@@H]3O[C@H](CO)[C@@H](O)[C@H]3O)c2c(=O)[nH]1 | 0 | 108.6
COc1ccc(-c2nc3c(=O)nc(N)[nH]c(=O)c3n2[C@@H]2O[C@H](CO)[C@@H](O)[C@H]2O)cc1 | 9.5 | 109.8
COc1cccc(-c2nc3c(=O)nc(N)[nH]c(=O)c3n2[C@@H]2O[C@H](CO)[C@@H](O)[C@H]2O)c1 | 31.8 | 97.2
